Reference: PubChem BioAssay (NCI)
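Each compound was tested at five concentrations against cells in 96-well plates for 48 hours. GI50: concentration for 50% inhibition of growth. At the TGI there is no net growth.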

What was measured:
Test in all cases: NCI anticancer screen, dose series, 48 h
[1] = tested on: A498 renal
[2] = tested on: A549 NSCLC
[3] = tested on: CCRF-CEM leukemia
[4] = tested on: COLO 205 colon
[5] = tested on: HT29 colon
[6] = tested on: PC-3 prostate
[7] = tested on: RPMI-8226 leukemia
[8] = tested on: SF-295 CNS
[9] = tested on: SK-MEL-2 melanoma
[10] = tested on: SK-MEL-28 melanoma

With `C=C1C[C@@H]2C/C=C/C(=O)C/C(C)=C\C=C\C(=O)O[C@H](C=O)C/C(C)=C/[C@H](C1)O2` the GI50 [1] was greater than 28.5 µM, the TGI [1] was greater than 55.6 µM and the GI50 [2] was 1.98 µM. It also gave a TGI [2] greater than 100 µM, a GI50 [3] of 0.315 µM and a TGI [3] of 0.956 µM. For the same compound, the GI50 [4] was 0.885 µM, the TGI [4] was 17.7 µM and the GI50 [5] was 0.281 µM. It also gave a TGI [5] of 12.6 µM, a GI50 [6] of 0.354 µM and a TGI [6] of 21.4 µM. It also gave a GI50 [7] of 0.295 µM, a TGI [7] of 3.29 µM and a GI50 [8] of 3.26 µM. The TGI [8] was 43.2 µM, the GI50 [9] was 6.1 µM and the TGI [9] was 34.9 µM. For the same compound, the GI50 [10] was 2.91 µM and the TGI [10] was 20.5 µM.
`Cc1ncc([N+](=O)[O-])n1CCNS(=O)(=O)CCCn1ccnc1[N+](=O)[O-]` gave a TGI [1] greater than 100 µM, a TGI [2] greater than 100 µM and a TGI [3] greater than 100 µM. It also gave a TGI [4] greater than 100 µM, a TGI [5] greater than 100 µM and a TGI [6] greater than 100 µM. The TGI [7] was greater than 100 µM, the TGI [8] was greater than 100 µM and the TGI [9] was greater than 100 µM. For the same compound, the TGI [10] was greater than 100 µM.
Work on `C=C1CC[C@@]2(C#N)[C@H]3[C@H](CC[C@@H]2C)[C@@H](C)C[C@@H](CC(C)(C)C#N)[C@H]13` yielded a GI50 [1] of 6.6 µM, a TGI [1] of 58.1 µM and a GI50 [2] of 3.52 µM. It also gave a TGI [2] of 34.8 µM, a GI50 [3] of 1.62 µM and a TGI [3] of 33.5 µM. The GI50 [4] was 1.61 µM, the TGI [4] was 14.4 µM and the GI50 [5] was 0.469 µM. It also gave a TGI [5] of 16.1 µM, a GI50 [6] of 0.283 µM and a TGI [6] of 30.5 µM. It also gave a GI50 [7] of 0.589 µM, a TGI [7] of 26.3 µM and a GI50 [8] of 0.171 µM. For the same compound, the TGI [8] was 1.68 µM, the GI50 [9] was 6.67 µM and the TGI [9] was 40.2 µM. The GI50 [10] was 2.63 µM and the TGI [10] was 44.2 µM.
`Cc1ccccc1CN1CC2=C(CCN(Cc3ccccc3)C2=O)N2CCN=C12` was tested, and the TGI [1] was greater than 100 µM, the TGI [2] was greater than 100 µM and the GI50 [3] was 0.7 µM. The TGI [3] was greater than 100 µM, the TGI [4] was greater than 100 µM and the TGI [5] was greater than 100 µM. For the same compound, the TGI [6] was greater than 100 µM, the TGI [7] was greater than 100 µM and the TGI [8] was greater than 60.4 µM. It also gave a TGI [9] greater than 81.6 µM and a TGI [10] greater than 100 µM.
`c1ccc2[nH]c(SSc3nc4ncncc4[nH]3)nc2c1` was tested, and the GI50 [1] was 8.11 µM, the TGI [1] was greater than 91.1 µM and the GI50 [2] was 19.4 µM. It also gave a TGI [2] greater than 100 µM, a GI50 [3] of 1.37 µM and a TGI [3] greater than 100 µM. It also gave a GI50 [4] of 2.59 µM, a TGI [4] of 10.2 µM and a GI50 [5] of 2.58 µM. For the same compound, the TGI [5] was greater than 100 µM, the GI50 [6] was 5.37 µM and the TGI [6] was greater than 100 µM. The GI50 [7] was 0.709 µM, the TGI [7] was greater than 100 µM and the GI50 [8] was 0.457 µM. It also gave a GI50 [9] of 2.72 µM, a TGI [9] greater than 100 µM and a GI50 [10] of 27.8 µM. The TGI [10] was greater than 100 µM.
Compound `CN(C)CCCN=C(N)N` has a TGI [1] greater than 100 µM, a TGI [2] greater than 100 µM and a TGI [3] greater than 100 µM. For the same compound, the TGI [4] was greater than 100 µM, the TGI [5] was greater than 100 µM and the TGI [6] was greater than 100 µM. For the same compound, the TGI [7] was greater than 100 µM, the TGI [8] was greater than 100 µM and the TGI [9] was greater than 100 µM. The TGI [10] was greater than 100 µM.
`COc1cc(Cl)cc(-c2nn(C(=O)NCCN3CCN(C)CC3)cc2-c2ccncc2)c1` showed a GI50 [1] of 4.67 µM, a TGI [1] of 24.7 µM and a GI50 [2] of 9.55 µM. For the same compound, the TGI [2] was greater than 100 µM, the GI50 [3] was 43 µM and the TGI [3] was greater than 100 µM. It also gave a GI50 [4] of 9.86 µM, a TGI [4] of 60.9 µM and a GI50 [5] of 3.32 µM. It also gave a TGI [5] of 72.1 µM, a GI50 [6] of 19.5 µM and a TGI [6] greater than 100 µM. For the same compound, the GI50 [7] was 21.9 µM, the TGI [7] was greater than 100 µM and the GI50 [8] was 7.73 µM. It also gave a TGI [8] of 46.6 µM, a GI50 [9] of 19.3 µM and a TGI [9] of 46 µM. For the same compound, the GI50 [10] was 5.31 µM and the TGI [10] was 40.6 µM.
In the case of `C=C1C(=O)O[C@@H]2C1C[C@@H](O)/C(C)=C/C/C=C(\C)CCC[C@H](C)[C@H]2OC(C)=O` (stereo not given in full), the GI50 [1] is reported as 54 µM, the TGI [1] is reported as greater than 100 µM and the GI50 [2] is reported as 35.8 µM. For the same compound, the TGI [2] was greater than 100 µM, the GI50 [3] was 21.2 µM and the TGI [3] was 40.2 µM. It also gave a GI50 [4] of 40.4 µM, a TGI [4] greater than 100 µM and a GI50 [5] of 40 µM. The TGI [5] was greater than 100 µM, the GI50 [6] was 21.4 µM and the TGI [6] was 51.3 µM. For the same compound, the GI50 [7] was 24.9 µM, the TGI [7] was 48.6 µM and the GI50 [8] was greater than 100 µM. For the same compound, the TGI [8] was greater than 100 µM, the GI50 [9] was 18.2 µM and the TGI [9] was 67.9 µM. The GI50 [10] was 34.5 µM and the TGI [10] was greater than 100 µM.
Work on `NCCCC(=O)Nc1ccncc1` yielded a GI50 [1] greater than 100 µM, a TGI [1] greater than 100 µM and a GI50 [2] greater than 100 µM. For the same compound, the TGI [2] was greater than 100 µM, the GI50 [3] was greater than 100 µM and the TGI [3] was greater than 100 µM. It also gave a GI50 [4] greater than 100 µM, a TGI [4] greater than 100 µM and a GI50 [5] greater than 100 µM. The TGI [5] was greater than 100 µM, the GI50 [6] was greater than 100 µM and the TGI [6] was greater than 100 µM. For the same compound, the GI50 [7] was greater than 100 µM, the TGI [7] was greater than 100 µM and the GI50 [8] was greater than 100 µM. It also gave a TGI [8] greater than 100 µM, a GI50 [9] greater than 100 µM and a TGI [9] greater than 100 µM. The GI50 [10] was greater than 100 µM and the TGI [10] was greater than 100 µM.
Compound `CC1(C)COCN1COC1CCCCC1` has a TGI [1] greater than 100 µM, a TGI [2] greater than 100 µM and a TGI [3] greater than 100 µM. For the same compound, the TGI [4] was greater than 100 µM, the TGI [5] was greater than 100 µM and the TGI [6] was greater than 100 µM. It also gave a TGI [7] greater than 100 µM, a TGI [8] greater than 100 µM and a TGI [9] greater than 100 µM. For the same compound, the TGI [10] was greater than 100 µM.
`CCOC(=O)Cc1csc(/N=C2\NC(=O)/C(=C3\C(=O)N(C)c4ccccc43)S2)n1` gave a GI50 [1] of 46.8 µM, a TGI [1] greater than 100 µM and a GI50 [2] of 36.5 µM. The TGI [2] was greater than 100 µM, the GI50 [3] was 26.1 µM and the TGI [3] was 61.9 µM. It also gave a GI50 [4] of 48.7 µM, a TGI [4] greater than 100 µM and a GI50 [5] of 44.5 µM. For the same compound, the TGI [5] was greater than 100 µM, the GI50 [6] was 34.1 µM and the TGI [6] was greater than 100 µM. It also gave a GI50 [7] of 32.4 µM, a TGI [7] greater than 100 µM and a GI50 [8] of 29.8 µM. It also gave a TGI [8] of 87 µM, a GI50 [9] of 24.2 µM and a TGI [9] greater than 100 µM. The GI50 [10] was 80.3 µM and the TGI [10] was greater than 100 µM.
With `CC(C)(C)C(=O)Nc1ccccc1I(=O)=O` the GI50 [1] was greater than 100 µM, the TGI [1] was greater than 100 µM and the GI50 [2] was greater than 100 µM. The TGI [2] was greater than 100 µM, the GI50 [3] was greater than 100 µM and the TGI [3] was greater than 100 µM. For the same compound, the GI50 [4] was greater than 100 µM, the TGI [4] was greater than 100 µM and the GI50 [5] was greater than 100 µM. The TGI [5] was greater than 100 µM, the GI50 [6] was greater than 100 µM and the TGI [6] was greater than 100 µM. It also gave a GI50 [7] greater than 100 µM, a TGI [7] greater than 100 µM and a GI50 [8] greater than 100 µM. The TGI [8] was greater than 100 µM, the GI50 [9] was greater than 100 µM and the TGI [9] was greater than 100 µM. For the same compound, the GI50 [10] was greater than 100 µM and the TGI [10] was greater than 100 µM.
